According to patent publication US11999727B2 (Tango Therapeutics, Inc., priority 2020, dated 2024):
Where two headings read alike, the source gives them in different places.

Assays:
PRMT5 [1] = biological target: T1, PRMT5 (Homo sapiens, UniProt O14744); test: PRMT5 biochemical IC50 assay with SAM as cofactor; details: PRMT5, SAM as cofactor; read-out: SAM IC50
T1 construct: purchased Viva (custom protein)

PRMT5 [2] = biological target: T1, PRMT5; test: PRMT5 biochemical IC50 assay with no cofactor; details: PRMT5, no cofactor
Excerpt: Table 1 indicates IC50 values (μM) against PRMT5 for exemplary compounds in the presence of SAM as cofactor, with no cofactor, and with MTA as cofactor, respectively (columns 4-6). […] Ki values can be calculated from the IC50 values as described in the Examples section. As detailed in the Examples section, for the assay performed in the presence of SAM, IC50=Ki×1.5 (Ki=IC50/1.5).

PRMT5 [3] = biological target: T1, PRMT5; test: PRMT5 biochemical IC50 assay with MTA as cofactor; details: PRMT5, MTA as cofactor; read-out: MTA IC50
[4] = tested on: HAP1 MTAP-intact cell line; test: SDMA in-cell western assay, HAP1 MTAP-intact; type: cell-based; details: Homo sapiens
Method in brief: (§1)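 Compounds were tested in HAP1 cells differing only in MTAP status (endogenous expression versus null). Cellular SDMA levels were then measured by in-cell western, giving an IC50 in each background.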

[5] = tested on: HAP1 MTAP-deleted cell line; test: SDMA in-cell western assay, HAP1 MTAP-deleted; type: cell-based; details: for IC50: Homo sapiens; for MTAP intact/deleted ratio: SDMA in-cell western
Method in brief: as §1

[6] = tested on: HAP1 MTAP-deleted cell line; test: Viability assay, MTAP-deleted cell line; type: cell-based; details: Homo sapiens, read-out: HAP1 MTAP deleted viability
Excerpt: Table 1 additionally indicates IC50 values in a viability assay for the MTAP-deleted cell line (column 10), indicating the effect of treatment with compound on cell survival.

[7] = HAP1, SDMA in-cell western, HAP1 MTAP-intact, read-out: MTAP HAP1 intact IC50
[8] = HAP1, SDMA in-cell western, HAP1 MTAP-deleted, read-out: HAP1 MTAP deleted IC50
[9] = IC50 ratio HAP1 MTAP-intact / HAP1 MTAP-deleted
[10] = HAP1, viability assay, MTAP-deleted cell line
[11] = HAP1, SDMA in-cell western, HAP1 MTAP-deleted, read-out: HAP 1 MTAP deleted IC50
[12] = HAP1, viability assay, HAP1 MTAP-deleted
[13] = read-out: No Cofactor/ rel IC50

T1 sequence (O14744 whole entry): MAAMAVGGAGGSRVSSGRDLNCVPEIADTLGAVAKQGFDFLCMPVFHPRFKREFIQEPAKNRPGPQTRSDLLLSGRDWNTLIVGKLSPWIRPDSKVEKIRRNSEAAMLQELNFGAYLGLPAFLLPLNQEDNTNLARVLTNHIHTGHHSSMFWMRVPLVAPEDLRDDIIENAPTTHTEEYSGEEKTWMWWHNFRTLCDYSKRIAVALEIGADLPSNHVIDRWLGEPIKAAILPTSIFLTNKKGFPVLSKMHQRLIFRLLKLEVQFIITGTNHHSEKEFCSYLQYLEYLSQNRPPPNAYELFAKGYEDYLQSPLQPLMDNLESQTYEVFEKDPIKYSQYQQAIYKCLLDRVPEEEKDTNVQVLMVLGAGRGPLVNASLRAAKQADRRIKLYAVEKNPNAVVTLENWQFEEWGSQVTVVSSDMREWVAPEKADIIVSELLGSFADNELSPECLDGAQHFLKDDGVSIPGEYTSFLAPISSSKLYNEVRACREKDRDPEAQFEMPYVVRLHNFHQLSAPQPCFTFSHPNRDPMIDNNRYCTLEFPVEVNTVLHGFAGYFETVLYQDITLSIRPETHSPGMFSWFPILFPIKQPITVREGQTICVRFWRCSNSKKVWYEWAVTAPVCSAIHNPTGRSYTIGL
T1 sequence (Q9BQA1 whole entry partner): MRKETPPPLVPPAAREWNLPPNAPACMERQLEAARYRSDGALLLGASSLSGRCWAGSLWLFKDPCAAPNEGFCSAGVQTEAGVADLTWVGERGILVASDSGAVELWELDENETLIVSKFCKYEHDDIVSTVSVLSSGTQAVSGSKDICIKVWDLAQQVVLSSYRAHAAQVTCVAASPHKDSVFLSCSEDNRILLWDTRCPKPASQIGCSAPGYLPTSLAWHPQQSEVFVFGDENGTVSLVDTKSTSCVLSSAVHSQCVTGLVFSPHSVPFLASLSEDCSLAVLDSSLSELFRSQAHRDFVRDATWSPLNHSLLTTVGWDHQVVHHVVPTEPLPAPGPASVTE

Row | Compound | IC50 (PRMT5 [1]) [nM] | IC50 (PRMT5 [2]; read-out: No Cofactor/rel IC50) [nM] | IC50 (PRMT5 [3]) [nM] | IC50 [4, 7] [nM] | IC50 [5, 8] [nM] | MTAP intact/deleted ratio [5, 9] | IC50 [6, 10] [nM] | IC50 [5, 11] [nM] | IC50 [6, 12] [nM] | IC50 (PRMT5 [2]; [13]) [nM] | IC50 ([6]; HAP1, viability, HAP1 MTAP-deleted cell line) [nM] | IC50 ([6]; HAP1, viability IC50, MTAP-deleted cell line) [nM] | IC50 ([4]; HAP1, read-out: MTAP HAP1 intact IC50) [nM] | IC50 ([5]; HAP1, read-out: HAP1 MTAP deleted IC50) [nM] | MTAP intact/deleted ratio ([5]; IC50 ratio HAP1 MTAP-intact vs HAP1 MTAP-deleted)
1 | CNc1ccc([C@@H]2CC[C@@H](C)CN2C(=O)C(=O)Nc2cncc(C(N)=O)c2)cn1 (racemic) [Compound 209, rac-5-{2-[(2R,5S)-5-Methyl-2-[6-(methylamino)pyridin-3-yl]piperidin-1-yl]-2-oxoacetamido}pyridine-3-carboxamide] | 50 to 500 | 50 to 500 | < 50 | > 1000 | < 100 | A (an IC50 ratio greater than or equal to 10 fold) | 1000 to 10000 | – | – | – | – | – | – | – | –
2 | CCc1cc(NC(=O)C(=O)N2C[C@H](C)CC[C@H]2c2ccc(NC(C)=O)nc2)cnc1N (single isomer, unassigned) [Compound 921] | > 500 | > 500 | > 500 | > 1000 | – | B (an IC50 ratio greater than or equal to 3 fold but lower than 10 fold) | > 10000 | > 1000 | – | – | – | – | – | – | –
3 | CC(=O)N[C@H]1CC[C@@H]([C@@H]2CC[C@@H](C)CN2C(=O)C(=O)Nc2cnc(N)c(C)c2)CC1 (single isomer, unassigned) [Compound 281] | > 500 | > 500 | 50 to 500 | > 1000 | 100 to 1000 | A (an IC50 ratio greater than or equal to 10 fold) | > 10000 | – | – | – | – | – | – | – | –
4 | CNc1nc2cc([C@H]3CC[C@H](C)CN3C(=O)C(=O)Nc3cncc(C(N)=O)c3)ccc2s1 (single isomer, unassigned) [Compound 862] | > 500 | > 500 | > 500 | > 1000 | > 1000 | B (an IC50 ratio greater than or equal to 3 fold but lower than 10 fold) | – | – | > 10000 | – | – | – | – | – | –
5 | COc1ncc(NC(=O)C(=O)N2C[C@@H](C)CC[C@@H]2c2ccc(N)nc2)cc1C(N)=O (single isomer, unassigned) [Compound 460] | 50 to 500 | < 50 | < 50 | > 1000 | < 100 | A (an IC50 ratio greater than or equal to 10 fold) | < 1000 | – | – | – | – | – | – | – | –
6 | COc1ncc(NC(=O)C(=O)N2C[C@H](C)CC[C@H]2c2ccc(NC(C)=O)cc2)cc1C(N)=O (single isomer, unassigned) [Compound 760] | 50 to 500 | < 50 | < 50 | > 1000 | < 100 | A (an IC50 ratio greater than or equal to 10 fold) | – | – | < 1000 | – | – | – | – | – | –
7 | Cc1cc(NC(=O)C(=O)N2C[C@@H](C)CC[C@@H]2c2ccc(N)nc2)cnc1N (single isomer, unassigned) [Compound 860] | > 500 | > 500 | > 500 | > 1000 | > 1000 | B (an IC50 ratio greater than or equal to 3 fold but lower than 10 fold) | – | – | > 10000 | – | – | – | – | – | –
8 | CCc1cc(NC(=O)C(=O)N2C[C@H](C)CC[C@H]2c2ccc(N3CCOC4(CN(C)C4)C3)cc2)cnc1N (single isomer, unassigned) [Compound 1150] | > 500 | > 500 | > 500 | > 1000 | > 1000 | – | > 10000 | – | – | – | – | – | – | – | –
9 | CCc1cc(NC(=O)C(=O)N2C[C@@H](C)CC[C@@H]2c2ccc(N3CCN(C)[C@@H](C)C3)nc2)cnc1N (single isomer, unassigned) [Compound 1289] | 50 to 500 | – | < 50 | 100 to 1000 | – | A (an IC50 ratio greater than or equal to 10 fold) | – | < 100 | – | < 50 | < 1000 | – | – | – | –
10 | C[C@@H]1CC[C@@H](c2ccc(N)cn2)N(C(=O)C(=O)Nc2cncc(C(N)=O)c2)C1 (single isomer, unassigned) [Compound 607] | 50 to 500 | > 500 | 50 to 500 | > 1000 | – | B (an IC50 ratio greater than or equal to 3 fold but lower than 10 fold) | – | > 1000 | – | – | – | > 10000 | – | – | –
11 | Cc1cncc(NC(=O)C(=O)N2C[C@@H](C)CC[C@@H]2c2cccs2)c1 (single isomer, unassigned) [Compound 76] | > 500 | – | > 500 | > 1000 | – | – | > 10000 | – | – | > 500 | – | – | – | – | –
12 | Cc1cc(NC(=O)C(=O)N2C[C@H](C)CC[C@H]2c2cc[nH]n2)cnc1N (single isomer, unassigned) [Compound 1050] | > 500 | > 500 | > 500 | > 1000 | – | C (an IC50 ratio of less than 3 fold) | – | > 1000 | – | – | – | – | – | – | –
13 | Cc1cncc(NC(=O)C(=O)N2CCCC[C@H]2c2cccc(C)c2)c1 (single isomer, unassigned) [Compound 4] | > 500 | – | 50 to 500 | > 1000 | – | C (an IC50 ratio of less than 3 fold) | – | > 1000 | – | > 500 | – | – | – | – | –
14 | CCc1cc(NC(=O)C(=O)N2C[C@H](C)CC[C@H]2c2cc3cn[nH]c3s2)cnc1N (single isomer, unassigned) [Compound 1055] | > 500 | > 500 | > 500 | > 1000 | – | B (an IC50 ratio greater than or equal to 3 fold but lower than 10 fold) | – | > 1000 | – | – | – | – | – | – | –
15 | COc1ncc(NC(=O)C(=O)N2C[C@@H](C)CC[C@H]2c2ccccc2)cc1C(N)=O (single isomer, unassigned) [Compound 322] | > 500 | > 500 | > 500 | – | – | B (an IC50 ratio greater than or equal to 3 fold but lower than 10 fold) | – | – | – | – | – | – | > 1000 | > 1000 | –
16 | Cc1cc(NC(=O)C(=O)N2C[C@H](C)CC[C@H]2c2ccc(CC(F)(F)F)cc2)cnc1N (racemic) [Compound 1056] | 50 to 500 | 50 to 500 | < 50 | 100 to 1000 | – | C (an IC50 ratio of less than 3 fold) | – | 100 to 1000 | – | – | – | – | – | – | –
17 | COc1ncc(NC(=O)C(=O)N2C[C@H](C)CC[C@H]2c2cccs2)cc1C(N)=O (single isomer, unassigned) [Compound 310] | > 500 | > 500 | > 500 | > 1000 | > 1000 | C (an IC50 ratio of less than 3 fold) | – | – | – | – | – | – | – | – | –
18 | Cc1cc(NC(=O)C(=O)N2C[C@@H](C)CC[C@@H]2C23CC(C(N)=O)(C2)C3)cnc1N (single isomer, unassigned) [Compound 1061] | > 500 | > 500 | > 500 | > 1000 | > 1000 | – | – | – | – | – | – | – | – | – | B (an IC50 ratio greater than or equal to 3 fold but lower than 10 fold)
19 | COc1ncc(NC(=O)C(=O)N2C[C@@H](C)CC[C@H]2C2CCCCC2)cc1C(N)=O (single isomer, unassigned) [Compound 371] | > 500 | > 500 | > 500 | > 1000 | > 1000 | C (an IC50 ratio of less than 3 fold) | – | – | – | – | – | – | – | – | –
20 | COc1ncc(NC(=O)C(=O)N2C[C@H](C)CC[C@H]2c2ccc3nn(C)cc3c2)cc1C(N)=O (single isomer, unassigned) [Compound 1051] | > 500 | > 500 | > 500 | > 1000 | – | B (an IC50 ratio greater than or equal to 3 fold but lower than 10 fold) | – | > 1000 | – | – | – | – | – | – | –
21 | Cc1cc(NC(=O)C(=O)N2CCCC[C@@H]2C2CCCC2)cnc1N (single isomer, unassigned) [Compound 336] | > 500 | > 500 | > 500 | > 1000 | > 1000 | C (an IC50 ratio of less than 3 fold) | – | – | – | – | – | – | – | – | –
22 | Cc1cc(NC(=O)C(=O)N2C[C@H](C)CC[C@H]2C2CCCN(C)C2)cnc1N (mixture of isomers) [Compound 832, N-(6-amino-5-methyl-3-pyridyl)-2-[(2R,5S)-5-methyl-2-(1-methyl-3-piperidyl)-1-piperidyl]-2-oxo-acetamide] | > 500 | > 500 | 50 to 500 | > 1000 | > 1000 | C (an IC50 ratio of less than 3 fold) | – | – | – | – | – | – | – | – | –
